Measured values: patent US20100099642A1, “TGF-BETA STIMULANT AND FURTHER AGENT TO REDUCE SIDE EFFECTS” (TCP Innovations Limited, priority 2007, published 2010)

Key:
tgfb2 mRNA = tgfb2 mRNA level by quantitative PCR in human aortic vascular smooth muscle cells; assay type: cell-based; conditions: 24 hrs, normalised to TBP, vs vehicle
Experimental: (1995) Cardiovasc. Res. 29:848-55). […] The cells were then incubated for either 24 hrs or 72 hrs depending on the experiment. All treatment conditions were established in triplicate. The level of mRNA for tgfb1, tgfb2 and tgfb3 were estimated by quantitative PCR. The media was removed and RNA was carefully prepared using the Ambion RNAqueous4PCR kit (Ambion#1914) in accordance with the manufacturer's instructions. The purity of the RNA and the quantity was assessed spectrophotometrically. […] This analysis results in both a gel-like image as well as electrophoretic data. Indications of RNA degradation are: (a) decreasing ratio of ribosomal bands (b) additional peaks bellow the ribosomal bands (c) Decrease in overall RNA signal (d) shift towards shorter fragments. […] Next, the RNA was converted to cDNA using the ABI High-Capacity cDNA Archive Kit, in accordance with manufacturer's instructions. The qPCR assay was then set up as follow: all cDNA samples were diluted to 180 μl total volume using Molecular grade water. Samples were vortexed to ensure thorough mixing. cDNA was aliquoted into ABI 384 well plates using a multi-channel pipette, 4.5 μl of sample into each well. Samples were assayed in triplicate (that is, nine determinations in total were made for each condition, being three separate assays on each of three replicate culture wells). The assay mix and Universal Master Mix were prepared and aliquoted across the 384 well plates 5.5 μl in each well, using a single channel pipette. The final composition of each reaction (10 μl) being: Primer/Probe assay mix (×20)=0.5 μl; Universal Master Mix=5 μl; cDNA=4.5 μl. […] Quantitative PCR was performed using several primer/probe sets. […] In all quantitative PCR experiments, several additional controls were included: firstly, a control for each sample is run with no reverse transcription to ensure the mRNA sample is not contaminated with genomic DNA (although the manual design probe/primer sets were all selected to cross an exon/exon boundary, ensuring no detectable amplicon is produced from genomic DNA templates). […]

tgfb3 mRNA = tgfb3 mRNA level by quantitative PCR in human aortic vascular smooth muscle cells; assay type: cell-based; conditions: 24 hrs, normalised to TBP, vs vehicle
Experimental: (1995) Cardiovasc. Res. 29:848-55). […] The cells were then incubated for either 24 hrs or 72 hrs depending on the experiment. All treatment conditions were established in triplicate. The level of mRNA for tgfb1, tgfb2 and tgfb3 were estimated by quantitative PCR. The media was removed and RNA was carefully prepared using the Ambion RNAqueous4PCR kit (Ambion#1914) in accordance with the manufacturer's instructions. The purity of the RNA and the quantity was assessed spectrophotometrically. […] This analysis results in both a gel-like image as well as electrophoretic data. Indications of RNA degradation are: (a) decreasing ratio of ribosomal bands (b) additional peaks bellow the ribosomal bands (c) Decrease in overall RNA signal (d) shift towards shorter fragments. […] Next, the RNA was converted to cDNA using the ABI High-Capacity cDNA Archive Kit, in accordance with manufacturer's instructions. The qPCR assay was then set up as follow: all cDNA samples were diluted to 180 μl total volume using Molecular grade water. Samples were vortexed to ensure thorough mixing. cDNA was aliquoted into ABI 384 well plates using a multi-channel pipette, 4.5 μl of sample into each well. Samples were assayed in triplicate (that is, nine determinations in total were made for each condition, being three separate assays on each of three replicate culture wells). The assay mix and Universal Master Mix were prepared and aliquoted across the 384 well plates 5.5 μl in each well, using a single channel pipette. The final composition of each reaction (10 μl) being: Primer/Probe assay mix (×20)=0.5 μl; Universal Master Mix=5 μl; cDNA=4.5 μl. The plates were then heat sealed using Abgene clear seal strong plastic heat seals, and then cycled and scanned using the […] under the following conditions: 95° C. for 10 minutes to activate the AmpliTaq GOLD, then 40 cycles of: 95° C. for 15 Sec (Denaturation), 60° C. for 60 […]). […] Quantitative PCR was performed using several primer/probe sets. […] We used both commercially available primer/probe sets (ABI Taqman pre-validated assays), using both available sets in the ABI database for tgfb1 and tgfb2, as well as the single available set for tgfb3. In addition, we used our own manual design probe/primer set for each of tgfb1, tgfb2 and tgfb3. […] In all quantitative PCR experiments, several additional controls were included: firstly, a control for each sample is run with no reverse transcription to ensure the mRNA sample is not contaminated with genomic DNA (although the manual design probe/primer sets were all selected to cross an exon/exon boundary, ensuring no detectable amplicon is produced from genomic DNA templates). Secondly, a control reaction is run using serial 2-fold dilutions of a standard cDNA preparation (prepared from commercially available IMAGE clones). […] Failure of either control led to the repeat of the entire experiment.

TGF-beta activity = TGF-beta activity estimated by smooth muscle cell proliferation (CPD with/without neutralising anti-TGF-beta antibody); assay type: cell-based, human; conditions: for TGF-beta activity: ratio of CPD in the absence vs presence of neutralising anti-TGF-beta antibody: 0 μM T, 72 hrs; for effect of lower doses on CPD and hence TGF-beta activity: doses below 10 μM Tamoxifen / below 100 μM aspirin
Experimental: The cells were cultured (37° C.; 5% CO2) in DMEM+20% foetal calf serum (FCS), and subcultured every 5 days at 1:2 dilution, using 0.02% trypsin/EDTA (Gibco).
For the experiments, the cells were subcultured into 12-well cluster plates at 1×10^5 cells/cm^2, and allowed to grow for 24 hrs. […] The cells were then incubated for either 24 hrs or 72 hrs depending on the experiment. All treatment conditions were established in triplicate.
Finally, TGF-beta activity was estimated by the direct effects on smooth muscle cell proliferation within the assay. For these experiments, the test agents were added, in triplicate, to cells both in the presence and absence of a neutralising antibody to TGF-beta (AB-100-NA; R&D Systems at 10 μg/ml, which is able to neutralise at least 25 ng/ml recombinant active TGF-beta1; R&D Systems). After 72 hrs incubation, the cells are washed and then released completely using 0.02% trypsin/EDTA (Gibco) at 37° C. for 10 mins, then counted manually using a haemocytometer. Importantly, the number of cells at 0 hrs must also be determined (using the same counting method, on a replicate set of three wells plated out specifically for the purpose). For each treatment condition, the TGF-beta-dependent inhibition of proliferation is expressed as the fold increase in the cumulative population doubling time in the absence of the neutralising antibody compared to the cumulative population doubling time in the presence of the neutralising antibody. […] Failure of either control led to the repeat of the experiment.

[1] = system: anti-carbohydrate antibodies; test: anti-carbohydrate antibody isotypes by direct ELISA in serum of men with coronary artery disease; assay type: in vivo, human; conditions: 3 months, Tamoxifen 20 mg once daily, aspirin 75 mg once daily, mean ± SD
Experimental: (§1) Patients continued with all other medications (statins, ACE inhibitors, beta blockers, calcium channel blockers, diuretics etc), but no patients were taking warfarin or tirofiban.
The level of anti-carbohydrate antibodies was measured by direct ELISA as previously described (Mosedale et al (2006) J. Immunol. Meth. 309:182-91). […] After a final 3 washes in PBS/Tween and single wash in PBS, 200 μl of K-blue chromogenic substrate was added to each well.
as §1
The level of anti-carbohydrate antibodies was then measured by direct ELISA using the procedure given in Example 5

DBA/1 mice = test: collagen-induced arthritis, footpad thickness in DBA/1 mice; assay type: in vivo, mouse; conditions: Tamoxifen 1 mg/kg/day p.o, aspirin 30 mg/kg/day p.o, from the booster injection onwards
Experimental: Collagen-induced arthritis was induced in adult male DBA/1 mice as previously described (Courtenay et al. (1980) Nature 283:666-8). Adult (12 week old) male DBA/1 mice were divided into groups of six animals. Mice received 100 μg per mouse of bovine type II collagen (Sigma) in Freunds Complete Adjuvant (FCA) by the subcutaneous route, while a control group received an identical injection of type I collagen in FCA. Twenty-one days later, all groups of mice received an intraperitoneal booster injection containing 100 μg per mouse of the same collagen type as previously, but in the absence of adjuvant. […] Foodpad thickness was determined each day using a digital caliper EC1507 (Moore & Wright) accurate to 0.01 mm. The thickness of each footpad was determined three times on each day by a single operator blind to the treatment condition of the mouse, and the footpad thickness of each mouse on each day was reported as the mean for the three measurements for all four paws. Errors represent the standard error of the mean among the six animals in each group.

| Structure (SMILES) | Level of tgfb2 mRNA, estimated by qPCR (tgfb2 mRNA; 10 μM A) | Level of tgfb2 mRNA, estimated by qPCR (tgfb2 mRNA; 33 μM A) | Level of tgfb2 mRNA, estimated by qPCR (tgfb2 mRNA; 100 μM A) | Level of tgfb3 mRNA, estimated by qPCR (tgfb3 mRNA; 10 μM A) | Level of tgfb3 mRNA, estimated by qPCR (tgfb3 mRNA; 33 μM A) | Level of tgfb3 mRNA, estimated by qPCR (tgfb3 mRNA; 100 μM A) | TGF-beta activity: ratio of CPD in the absence vs presence of neutralising anti-TGF-beta antibody (TGF-beta activity; 10 μM A) | TGF-beta activity: ratio of CPD in the absence vs presence of neutralising anti-TGF-beta antibody (TGF-beta activity; 33 μM A) | TGF-beta activity: ratio of CPD in the absence vs presence of neutralising anti-TGF-beta antibody (TGF-beta activity; 100 μM A) | TGF-beta activity: ratio of CPD in the absence vs presence of neutralising anti-TGF-beta antibody (TGF-beta activity; 100 μM A, listed as A) | effect of lower doses on CPD and hence TGF-beta activity (TGF-beta activity) | IgG2 titre, change versus baseline [1] | IgG2 Absorbance, change versus baseline ([1]; neat serum) | Level of tgfb3 mRNA, estimated by qPCR (tgfb3 mRNA; 3.3 μM T) | Level of tgfb3 mRNA, estimated by qPCR (tgfb3 mRNA; 10 μM T) | Level of tgfb3 mRNA, estimated by qPCR (tgfb3 mRNA; 33 μM T) | reduction of maximal collagen-II induced footpad swelling (DBA/1 mice) |
| --- | --- | --- | --- | --- | --- | --- | --- | --- | --- | --- | --- | --- | --- | --- | --- | --- | --- |
| CC(=O)Oc1ccccc1C(=O)O [Aspirin, acetylsalicylic acid] | 0.92 ± 0.10 fold-change | 1.00 ± 0.17 fold-change | 1.03 ± 0.16 fold-change | 1.09 ± 0.08 fold-change | 1.06 ± 0.13 fold-change | 0.94 ± 0.09 fold-change | 1.05 ± 0.09 fold | 1.13 ± 0.17 fold | 1.25 fold | 1.25 ± 0.06 fold | no statistically significant effect | – | – | – | – | – | – |
| CC/C(=C(\c1ccccc1)c1ccc(OCCN(C)C)cc1)c1ccccc1 [Tamoxifen] | – | – | – | – | – | – | – | – | – | – | no statistically significant effect | +176% ± 43% | +0.61 ± 0.17 | 0.92 ± 0.16 fold-change | 1.19 ± 0.21 fold-change | 1.31 ± 0.11 fold-change | 36% |
